From patent US10213451B2, “Methods and compounds for modulating the secretion or expression of adhesion proteins or angiopoietins of cells” (PACIFIC ARROW LIMITED, priority 2004, dated 2019)

How the values were obtained:
Assay type in all cases: cell-based, human
[1] = tested on: fibronectin expression in ES2 cells; test: Microarray gene expression, Table 1
Description: (§1) Y/D is the ratio (in folds) of gene expression in cells treated with compound Y as compared with those of the no drug control (D),
(§2) YM/D is the ratio of gene expression in cells treated with compound YM (ACH-Y, Y without sugar moiety) compared with those of the no drug control (D)
(§3) Cell culture and drug-treatment.: ES2 cells were seeded in a T-25 flask with 4.5 million cells per flask for 24 hours. Cell culture was replaced with fresh medium with xanifolia-Y (Y) or DMSO no drug control (D) for 24 hours. Cells were then harvested for RNA isolation. Three experiments were done.
(§4) RNA extraction, labeling, hybridization, and data analysis. RNA was extracted from tumor cells using the Qiagen RNeasy Kit. RNA quality and quantity was checked by the Agilent BioAnalyzer and the NanoDrop® ND-1000 spectrophotometer respectively before further manipulation. The first and second cDNA strands were synthesized from 20 ng of total RNA using the Affymetrix T7 oligo(dT) primer protocol and kit for the two-cycle amplification. To produce amplified biotin-labeled-cRNA, the cDNA was […] by in vitro transcription using the MegaScript kit from Ambion. 15.0 μg of the labeled cRNA was fragmented and re-checked for concentration using the NanoDrop® ND-1000 spectrophotometer. A hybridization cocktail containing Affymetrix spike-in controls and fragmented labeled cRNA was loaded onto the Human U133 Plus 2.0 GeneChip® oligonucleotide array. The Affymetrix array (Affymetrix, Inc. Santa Clara, Calif.) is comprised of over 1,300,000 unique oligonucleotide features that represent greater than 38,500 well-substantiated human genes. The array was hybridized for 16 hours at 45° C. with rotation at 60 rpm then washed and stained with a strepavidin, R-phycoerythrin conjugate stain on the Affymetrix Fluidicis Station 450. Signal amplification was done using biotinylated antistreptavidin. The arrays were scanned using the GeneChip® 3000 confocal laser scanner with autoloader. The images were analyzed and quality control metrics recorded using Affymetrix GCOS software version 1.4. Lastly, the expression value for each gene was calculated using dChip PM-only model based or Plier algorithm.
(§5) Pairwise comparisons were made as follows: Treated vs. Control (Y vs. D), Modified Drug vs Control (YM/ACY-H vs. D) and Treated vs. Modified Drug (Y vs. YM/ACH-Y) Cel files analyzed using the Bioconductor package of R Statistical programming. Limma analysis generated a reasonable number of changing genes between the samples.
(§6) The raw data in the .CEL files were normalized by the GCRMA method (robust multi-array analysis). It is implemented in Bioconductor (http://www.bioconductor.org/). The raw signal intensity data were normalized, background corrected and summarized based on certain statistical models, and an expression value, in log 2-scale, is obtained per chip per probe set. Then the null hypothesis was tested that there's no significant changes in gene expression between the treatment pairs. This was done by LIMMA and is also implemented in Bioconductor. It uses empirical Bayes method to estimate the variance in gene expression. One comparison was made, namely, High Grade vs. Low Grade. The raw p-values were adjusted by the Benjamnin-Hochberg method for false discovery rate (FDR) control. All data sets contained a significant number of genes with a p-value less than 0.05, which is that the probability that a gene is NOT differential expressed (false positive) is 1:20.

[2] = tested on: integrin (vitronectin receptor) expression in ES2 cells; test: Microarray gene expression, Table 2
Description: as §1, §2, §3, §4, §5
The raw data in the .CEL files were normalized by the GCRMA method (robust multi-array analysis). It is implemented in Bioconductor (http://www.bioconductor.org/). […]

[3] = tested on: CAM expression in ES2 cells; test: Microarray gene expression, Table 4
Description: as §1, §2, §3, §4, §5, §6

[4] = tested on: integrin expression in ES2 cells; test: Microarray gene expression, Table 6
Description: as §1, §2, §3, §4, §5, §6

[5] = tested on: cadherins expression in ES2 cells; test: Microarray gene expression, Table 8
Description: as §1, §2, §3, §4, §5, §6

[6] = tested on: RAB3B, member RAS oncogene family protein expression in ES2 cells; test: Microarray gene expression, Table 17
Description: as §1, §2, §3, §4, §5, §6

[7] = tested on: potassium channel, subfamily U, protein expression in ES2 cells; test: Microarray gene expression, Table 18; conditions: probe 237273_at
Description: as §1, §2, §3
RNA extraction, labeling, hybridization, and data analysis. RNA was extracted from tumor cells using the Qiagen RNeasy Kit. RNA quality and quantity was checked by the Agilent BioAnalyzer and the NanoDrop® ND-1000 spectrophotometer respectively before further manipulation. […] The images were analyzed and quality control metrics recorded using Affymetrix GCOS software version 1.4. Lastly, the expression value for each gene was calculated using dChip PM-only model based or Plier algorithm.
Pairwise comparisons were made as follows: Treated vs. Control (Y vs. D), Modified Drug vs Control (YM/ACY-H vs. D) and Treated vs. Modified Drug (Y vs. YM/ACH-Y) Cel files analyzed using the Bioconductor package of R Statistical programming. […]

[8] = tested on: Fibronectin secretion from lung carcinoma cells (H460); test: Fibronectin secretion (Western blot), H460 cells; conditions: for % inhibition of Fibronectin secretion: H460 cells, 20 ug/ml
[9] = tested on: Fibronectin secretion from liver HepG2 cells; test: Fibronectin secretion (Western blot), HepG2 cells; conditions: 10 ug/ml
[10] = tested on: Fibronectin secretion from skin SK-Mel-5 cells; test: Fibronectin secretion (Western blot), SK-MEL-5 cells; conditions: Homo sapiens

## C/C=C(/C)C(=O)O[C@H]1[C@H](OC(=O)/C(C)=C\C)[C@@]2(CO)C(CC1(C)C)C1=CCC3[C@@]4(C)CC[C@H](O[C@@H]5OC(C(=O)O)[C@@H](O)C(O[C@@H]6O[C@@H](CO)C(O)C6O)C5O[C@@H]5OC(CO)[C@H](O)C(O)C5O)C(C)(C)C4CC[C@@]3(C)[C@]1(C)[C@@H](O)[C@H]2O (stereo partly drawn) [Xanifolia-Y, 3-O-[β-D-galactopyranosyl (1→2)]-α-L-arabinofuranosy (1→3)-β-D-glucuronopyranosyl-21,22-O-diangeloyl-3β, 15α, 16α, 21β, 22α, 28-hexahydroxyolean-12-ene]
[1]; probe 210495_x_at
  FN1 fibronectin 1, gene expression ratio to no drug control (D): −2.5 folds
[1]; probe 211719_x_at
  FN1 fibronectin 1, gene expression ratio to no drug control (D): −2.6 folds
[1]; probe 212464_s_at
  FN1 fibronectin 1, gene expression ratio to no drug control (D): −2.7 folds
[1]; probe 216442_x_at
  FN1 fibronectin 1, gene expression ratio to no drug control (D): −2.6 folds
[2]; probe 202351_at
  ITGAV integrin, alpha V (vitronectin receptor), gene expression ratio to no drug control (D): −1.8 folds
[2]; probe 236251_at
  ITGAV integrin, alpha V (vitronectin receptor), gene expression ratio to no drug control (D): −1.4 folds
[3]; probe 201951_at
  ALCAM activated leukocyte cell adhesion molecule, gene expression ratio to no drug control (D): −1.9 folds
[3]; probe 201952_at
  ALCAM activated leukocyte cell adhesion molecule, gene expression ratio to no drug control (D): −1.9 folds
[3]; probe 206667_s_at
  SCAMP1 secretory carrier membrane protein 1, gene expression ratio to no drug control (D): −1.3 folds
[3]; probe 212416_at
  SCAMP1 secretory carrier membrane protein 1, gene expression ratio to no drug control (D): −1.3 folds
[3]; probe 212417_at
  SCAMP1 secretory carrier membrane protein 1, gene expression ratio to no drug control (D): −1.4 folds
[3]; probe 212425_at
  SCAMP1 secretory carrier membrane protein 1, gene expression ratio to no drug control (D): −1.7 folds
[3]; probe 228234_at
  TICAM2 toll-like receptor adaptor molecule 2, gene expression ratio to no drug control (D): −1.3 folds
[3]; probe 239431_at
  TICAM2 toll-like receptor adaptor molecule 2, gene expression ratio to no drug control (D): −1.3 folds
[3]; probe 240655_at
  ALCAM activated leukocyte cell adhesion molecule, gene expression ratio to no drug control (D): −1.6 folds
[3]; span over different probes of Table 4
  inhibiting ratio to the control, genes related to the adhesion molecule: −1.3 to −1.9 folds
[4]; probe 201474_s_at
  ITGA3 integrin, alpha 3, gene expression ratio to no drug control (D): −1.6 folds
[4]; probe 201656_at
  ITGA6 integrin, alpha 6, gene expression ratio to no drug control (D): −1.5 folds
[4]; probe 202351_at
  ITGAV integrin, alpha V (vitronectin receptor), gene expression ratio to no drug control (D): −1.8 folds
[4]; probe 205422_s_at
  ITGBL1 Integrin, beta-like 1, gene expression ratio to no drug control (D): −1.9 folds
[4]; probe 205884_at
  ITGA4 integrin, alpha 4, gene expression ratio to no drug control (D): −1.6 folds
[4]; probe 205885_s_at
  ITGA4 integrin, alpha 4, gene expression ratio to no drug control (D): −1.7 folds
[4]; probe 213416_at
  ITGA4 integrin, alpha 4, gene expression ratio to no drug control (D): −1.6 folds
[4]; probe 214021_x_at
  ITGB5 Integrin, beta 5, gene expression ratio to no drug control (D): −1.5 folds
[4]; probe 214927_at
  ITGBL1 Integrin, beta-like 1, gene expression ratio to no drug control (D): −1.7 folds
[4]; probe 215177_s_at
  ITGA6 integrin, alpha 6, gene expression ratio to no drug control (D): −1.6 folds
[4]; probe 227259_at
  CD47 antigen (integrin-associated signal transducer), gene expression ratio to no drug control (D): −1.6 folds
[4]; probe 1555349_a_at
  ITGB2 integrin, beta 2, gene expression ratio to no drug control (D): −1.6 folds
[4]; probe 1557080_s_at
  ITGBL1 Integrin, beta-like 1, gene expression ratio to no drug control (D): −1.7 folds
[4]; span over probes of Table 6
  expression ratio to the control, integrin family: −1.5 to −1.9 folds
[5]; probe 201533_at
  CTNNB1 catenin (cadherin-associated protein), beta 1, 88 kDa, gene expression ratio to no drug control (D): −1.5 folds
[5]; probe 202468_s_at
  CTNNAL1 catenin (cadherin-associated protein), alpha-like 1, gene expression ratio to no drug control (D): −1.9 folds
[5]; probe 203440_at
  CDH2 cadherin 2, type 1, N-cadherin (neuronal), gene expression ratio to no drug control (D): −1.4 folds
[5]; probe 204677_at
  CDH5 cadherin 5, type 2, VE-cadherin, gene expression ratio to no drug control (D): −1.5 folds
[5]; probe 204726_at
  CDH13 cadherin 13, H-cadherin (heart), gene expression ratio to no drug control (D): −1.8 folds
[5]; probe 207149_at
  CDH12 cadherin 12, type 2 (N-cadherin 2), gene expression ratio to no drug control (D): −1.7 folds
[5]; probe 208407_s_at
  CTNND1 catenin (cadherin-associated, protein), delta 1, gene expression ratio to no drug control (D): −1.5 folds
[5]; probe 210844_x_at
  CTNNA1 catenin (cadherin-associated protein), alpha 1, 102 kDa, gene expression ratio to no drug control (D): −1.4 folds
[5]; probe 244091_at
  CDH13 cadherin 13, H-cadherin (heart), gene expression ratio to no drug control (D): −2.0 folds
[6]; probe 205924_at
  RAB3B, member RAS oncogene family, gene expression ratio to no drug control (D): −1.7 folds
[6]; probe 205925_s_at
  RAB3B, member RAS oncogene family, gene expression ratio to no drug control (D): −1.2 folds
[6]; probe 227123_at
  RAB3B, member RAS oncogene family, gene expression ratio to no drug control (D): −1.6 folds
[6]; probe 242629_at
  RAB3B, member RAS oncogene family, gene expression ratio to no drug control (D): −3.5 folds
[7]
  KCNU1 potassium channel, subfamily U, member 1, gene expression ratio to no drug control (D): −4.0 folds
[8]
  % inhibition of Fibronectin secretion: 20-60%
[8]; listed as Y
  % inhibition of Fibronectin secretion: over 60%
[8]; Homo sapiens, NCI-H460, H460 cells, 10 ug/ml
  inhibition at 10 µg/mL: 19%
[9]; HepG2 cells
  % inhibition of Fibronectin secretion: 48%
[9]; Homo sapiens, HepG2, HepG2 cells
  inhibition at 10 µg/mL: 42%
[10]; 10 ug/ml
  inhibition at 10 µg/mL: 11%
[10]; 20 ug/ml
  inhibition at 20 µg/mL: 40 to 57%
